Measured values from US6890959B2, “Aminomethyl-phenyl-cyclohexanone derivatives” (Gruenenthal GmbH, priority 2000, dated 2005).
Counter-ions that a name gives are not always drawn.

System: Male NMRI mice
Assay: phenylquinone-induced writhing test in mice
Type: in vivo
Conditions: 10 mg/kg i.v.; phenylquinone i.p. 10 minutes after compound; writhing counted 5-20 minutes after phenylquinone
Description: The antinociceptive activity of the compounds according to the invention was investigated in mice in a phenylquinone-induced writhing test, as modified by I. C. Hendershot, J. Forsaith, J. Pharmacol. Exp. Ther. 125, 237-240 (1959). Male NMRI mice weighing 25-30 g were used. Groups of 10 animals per substance dose received 0.3 ml/mouse of a 0.02% aqueous solution of phenylquinone (phenylbenzoquinone, Sigma, Deisenhofen; preparation of the solution with the addition of 5% ethanol and storage in a water bath at 45° C.) administered intraperitoneally 10 minutes after intravenous administration of a compound according to the invention. The animals were placed individually in observation cages. The number of pain-induced stretching movements (so-called writhing reactions, i.e. straightening of the body with stretching of the hind extremities) was counted by means of a push-button counter for 5-20 minutes after the administration of phenylquinone. Animals which received physiological saline solution i.v. and […]. were also used as a control.
All substances were tested in a standard dose of 10 mg/kg. The percentage inhibition (% inhibition) of the writhing reactions by a substance was calculated according to the following equation: % inhibition=100−[WR treated animals/WR control×100]

rac-cis-[4-Dimethylaminomethyl-3-(3-hydroxy-phenyl)-cyclohexanone [Compound 4]
% inhibition of the writhing reactions: 100%

rac-trans-[4-dimethylaminomethyl-3-(3-methoxy-phenyl)-cyclohexanone]hydrochloride [Compound 3]
% inhibition of the writhing reactions: 92%

COc1cccc(C2CC(=O)CCC2CN(C)C)c1 (racemic) [Compound 2, rac-cis-[4-Dimethylaminomethyl-3-(3-methoxy-phenyl)-cyclohexanone]hydrochloride]
% inhibition of the writhing reactions: 96%
